Series [1] has as its system HepG2. As to the kind of experiment: Antitumor activity against human HepG2 cells assessed as inhibition of cell growth incubated for 48 hrs by MTT assay. The format is functional, cell-based. As to conditions: HepG2, 48 h. Background: Tetrazolium dyes change colour on reduction, which living cells bring about.
Series [2] in a line: Cytotoxicity against mouse L929 cells assessed as cell growth inhibition incubated for 48 hrs by MTT assay. The class given is toxicity, cell-based.
The subject of series [3] is HeLa. As to the kind of experiment: cells. As to conditions: Homo sapiens, 48 h.
Description: Antitumor activity against human HeLa cells assessed as inhibition of cell growth incubated for 48 hrs by MTT assay
Series [4] relates to HeLa. As to the kind of experiment: Antitumor activity against human HeLa cells assessed as inhibition of cell growth by MTT assay. The format is functional, cell-based.
Series [5] relates to HepG2. Nature of the series: Effect on cell morphology in human HepG2 cells assessed as cell shrinkage at 26.1 uM incubated for 48 hrs by fluorescent inverted microscopic analysis. The format is functional, cell-based.
Series [6] concerns HeLa. Nature of the series: Effect on cell morphology in human HeLa cells assessed as cell shrinkage at 26.1 uM incubated for 48 hrs by fluorescent inverted microscopic analysis. The class given is functional, cell-based.
In series [7] the test system is HepG2. As to the kind of experiment: Effect on cell morphology in human HepG2 cells assessed as decrease in cell contact at 26.1 uM incubated for 48 hrs by fluorescent inverted microscopic analysis. The class given is functional, cell-based.
Series [8] has as its system HeLa. As to the kind of experiment: Effect on cell morphology in human HeLa cells assessed as decrease in cell contact at 26.1 uM incubated for 48 hrs by fluorescent inverted microscopic analysis. The format is functional, cell-based.
Series [9] deals with HeLa. As to the kind of experiment: Effect on cell morphology in human HeLa cells assessed as appearance of round cells at 26.1 uM incubated for 12 to 24 hrs by scanning electron microscopic analysis. As to conditions: time 12-24 hrs. The class given is functional, cell-based.
Series [10] relates to HeLa. As to the kind of experiment: Effect on cell morphology in human HeLa cells assessed as disappearance of finger like protrusions at 26.1 uM incubated for 12 to 24 hrs by scanning electron microscopic analysis. The class given is functional, cell-based. As to conditions: time 12-24 hrs.
Series [11] concerns HeLa. As to the kind of experiment: Effect on cell morphology in human HeLa cells assessed as complete disruption at 26.1 uM incubated for 48 hrs by scanning electron microscopic analysis. The format is functional, cell-based.
The test system of series [12] is HeLa. Nature of the series: Induction of cell cycle arrest in human HeLa cells assessed as accumulation at G2/M phase at 12.3 uM by RNAse A/PI staining based flow cytometric analysis. The following applies: time 12-48 hrs, TDE = time-dependent effect. The class given is functional.
Series [13] has as its system HeLa. As to the kind of experiment: Induction of mitochondrial membrane potential loss in human HeLa cells assessed as decrease in fluorescence intensity at 6.2 to 24.6 uM incubated for 12 to 48 hrs by Rhodamine 123 staining based flow cytometric analysis. The following applies: dose 6.2-24.6 µM, time 12-48 hrs. The class given is functional, cell-based. (In general: A flow cytometer gives signals particle by particle.)

In series [14] the test system is HeLa. As to the kind of experiment: Induction of mitochondrial membrane potential loss in human HeLa cells assessed as decrease in fluorescence intensity […] at 12.3 uM by Rhodamine 123 staining based flow cytometric analysis. The format is functional, cell-based. As to conditions: time 12-48 hrs, TDE = time-dependent effect.
For series [15], the system named is HeLa. As to the kind of experiment: Effect on intracellular calcium ion concentration in human HeLa assessed as increase in fluorescence intensity at 12.3 uM by Fluo-3 AM staining based flow cytometric analysis. The class given is functional, cell-based.
Series [16] deals with HeLa. As to the kind of experiment: Antitumor activity against human HeLa cells assessed as inhibition of lactate dehydrogenase activity at 37.5 to 200 uM incubated for 48 hrs by Lactate dehydrogenase activity assay. The class given is functional, cell-based. The following applies: dose 37.5-200 µM.
For series [17], the system named is HeLa. As to the kind of experiment: Downregulation of MDM2 protein expression in human HeLa cells at 6.2 to 24.6 uM incubated for 48 hrs by Western blotting analysis. The following applies: dose 6.2-24.6 µM. The class given is functional, cell-based. A general note: A western blot detects proteins with antibodies after separation by electrophoresis.
The test system of series [18] is HeLa. Nature of the series: Upregulation of p53 protein expression in human HeLa cells at 6.2 to 24.6 uM incubated for 48 hrs by Western blotting analysis. The class given is functional, cell-based. As to conditions: dose 6.2-24.6 µM.
Series [19] has as its system HeLa. Nature of the series: Upregulation of cytochrome C expression in human HeLa cell cytosol at 6.2 to 24.6 uM incubated for 48 hrs by Western blotting analysis. As to conditions: dose 6.2-24.6 µM. The format is functional, subcellular.

This passage reports IC50, Activity and inhibition results from ChEMBL document CHEMBL5120939, “Novel Isoindolinone-Based Analogs of the Natural Cyclic Peptide Fenestin A: Synthesis and Antitumor Activity” (ACS Med Chem Lett, 2022).

pIC50: −log10 of the molar value. The source made the active and inactive calls. The calls are words filed in the database; no cut-off is given here. Numbered stars: 1 amine (or outer) side, 2 acyl side, 3 side chain; on linkers, the order of the positions; unused ones are H or OH. Square brackets hold non-standard residues; d marks the D form. Peptide text beside a SMILES is read from it. X1 = O=C1c2ccccc2[C@@](O)(CN(Cc2ccccc2)[*:1])N1CC(=O)[*:2]; X2 = O=C1c2ccccc2[C@](O)(CN(Cc2ccccc2)[*:1])N1CC(=O)[*:2]; Thz = O=C(O)[C@@H]1CSCN1 Some results are limits rather than exact numbers.

As a reminder, the pIC50 is the IC50 on a negative log10 scale, so that one unit is a factor of ten. One may read the IC50 as the concentration that inhibits the measured activity by half.

`CC[C@H](C)[C@@H]1NC(=O)CN2C(=O)c3ccccc3[C@]2(O)CN(Cc2ccccc2)C(=O)[C@H](CC(C)C)NC(=O)[C@@H]2CCCN2C(=O)[C@@H]2CCCN2C1=O` (cyclo(IPPL[X2])): the pIC50 in the series with HepG2 [1] was 4.42; in the series on HeLa [3], 4.49. The concentration for half-maximal inhibition (IC50) at 48 h in series [2] is > 400 µM.

As to `CC[C@H](C)[C@@H]1NC(=O)[C@H](CC(C)C)NC(=O)[C@@H]2CSCN2C(=O)CN2C(=O)c3ccccc3[C@]2(O)CN(Cc2ccccc2)C(=O)[C@@H]2CSCN2C1=O`, the pIC50 was 4.56 with HepG2 [1] and 4.16 with HeLa [3]. For the same compound, the IC50 at 48 h in [2] stood at 293 µM.

As for `COc1cccc2c1C(=O)c1c(O)c3c(c(O)c1C2=O)C[C@@](O)(C(=O)CO)C[C@@H]3O[C@H]1C[C@H](N)[C@H](O)[C@H](C)O1` [DOXORUBICIN], the pIC50 in the series on HepG2 [1] was 4.13. Moreover, the IC50 at 48 h in [2] came to 326 µM.

`CC[C@H](C)[C@@H]1NC(=O)[C@H](CC(C)C)NC(=O)CN2C(=O)c3ccccc3[C@@]2(O)CN(Cc2ccccc2)C(=O)[C@@H]2CSCN2C(=O)[C@@H]2CSCN2C1=O`: the pIC50 in the series with HepG2 [1] is 4.31; in the series on HeLa [3] it was 4.09. Further, the half-maximal inhibitory concentration (IC50) at 48 h in series [2] worked out at 274 µM.

Take `CC[C@H](C)[C@@H]1NC(=O)[C@H](CC(C)C)NC(=O)[C@@H]2CCCN2C(=O)CN2C(=O)c3ccccc3[C@]2(O)CN(Cc2ccccc2)C(=O)[C@@H]2CCCN2C1=O` (cyclo(IP[X2]PL)): the figures for the negative-log IC50 (pIC50) in the series with HepG2 [1], with HeLa [4] and in the series with HeLa [3] were 4.47, 4.55 and 4.55, respectively. Moreover, the IC50 at 48 h in [2] is > 400 µM.

For the compound `CC[C@H](C)[C@@H]1NC(=O)[C@H](CC(C)C)NC(=O)[C@@H]2CSCN2C(=O)[C@H]2CSCN2C(=O)CN2C(=O)c3ccccc3[C@@]2(O)CN(Cc2ccccc2)C1=O`, the result in the series on HepG2 [5], in the series with HeLa [6], in the series on HepG2 [7], with HeLa [8], with HeLa [9] and with HeLa [10] was Active. Also, the outcome with HeLa [11], in the series on HeLa [13], in the series with HeLa [15], in the series with HeLa [17], in the series with HeLa [18] and in the series with HeLa [19] was Active. For the same compound, the Activity entry with HeLa [12] and in the series with HeLa [14] was “Tde” in each case. Also, in the series on HeLa [16], the inhibition entry is “Active”.

As for `CC[C@H](C)[C@@H]1NC(=O)CN2C(=O)c3ccccc3[C@]2(O)CN(Cc2ccccc2)C(=O)[C@H](CC(C)C)NC(=O)[C@@H]2CSCN2C(=O)[C@@H]2CSCN2C1=O` (cyclo(I[Thz][Thz]L[X2])), the pIC50 in the series with HepG2 [1] was 4.57; in the series with HeLa [3] it was 4.63. In addition, in series [2], the IC50 at 48 h was > 400 µM.

In the case of `CC[C@H](C)[C@@H]1NC(=O)[C@H](CC(C)C)NC(=O)[C@@H]2CCCN2C(=O)[C@@H]2CCCN2C(=O)CN2C(=O)c3ccccc3[C@]2(O)CN(Cc2ccccc2)C1=O` (cyclo(I[X2]PPL)), the pIC50 with HepG2 [1] is 4.39; with HeLa [4], 4.44; in the series on HeLa [3], 4.44. The IC50 at 48 h in [2] is > 400 µM.

`CC[C@H](C)[C@@H]1NC(=O)[C@H](CC(C)C)NC(=O)[C@@H]2CSCN2C(=O)[C@@H]2CSCN2C(=O)CN2C(=O)c3ccccc3[C@@]2(O)CN(Cc2ccccc2)C1=O`: the pIC50 with HepG2 [1] was 4.61; in the series with HeLa [3], 4.91. For the same compound, the IC50 at 48 h in [2] was 70.9 µM.

In the case of `CC[C@H](C)[C@@H]1NC(=O)[C@H](CC(C)C)NC(=O)CN2C(=O)c3ccccc3[C@@]2(O)CN(Cc2ccccc2)C(=O)[C@@H]2CCCN2C(=O)[C@@H]2CCCN2C1=O` (cyclo(IPP[X1]L)), the negative logarithm of the IC50 (pIC50) with HepG2 [1] was 4.03; in the series on HeLa [3], 3.98. Further, the IC50 at 48 h in series [2] came out at 284 µM.
